Columns and labels:
[1] = system: Neuroblastoma SH-SY5Y (ALK F1174L) xenograft; format: in vivo, mouse
Method: (§1) A subcutaneous xenograft tumor model of human tumor immunodeficient mice was established by cell inoculation: tumor cells in logarithmic growth phase were collected, counted, resuspended in 1×PBS, and the cell suspension concentration was adjusted to 2.5-5 ×10^7/mL. The tumor cells were inoculated subcutaneously in the right side of immunodeficient mice with a 1 mL syringe ([…]), 5-10×10^6/0.2 mL/mouse. All animal experiments were strictly in accordance with the specifications for the use and management of experimental animals in GenePharma Co., Ltd. and Suzhou Ascentage Pharma Co., Ltd. The calculation of relevant parameters refers to the Chinese NMPA “Guidelines for Non-Clinical Research Techniques of Cytotoxic Anti-tumor Drugs”.
(§2) Animal body weight and tumor size were measured twice weekly during the experiment. The state of the animal and the presence or absence of death were observed every day. The growth of tumor and the effects of treatment on normal behavior of animals were monitored routinely, specifically involving experimental animal activity, feeding and drinking, weight gain or loss, eyes, clothing hair and other abnormalities. The deaths and clinical symptoms observed during the experiment were recorded in the raw data. All operations for administration and measurement of mouse body weight and tumor volume were performed in a clean bench. According to the requirements of the experimental protocol, after the end of the last administration, plasma and tumor tissues were collected, weighed and photographed. The plasma and tumor samples were frozen at −80° C. for ready-to-use.
(§3) Tumor volume (TV) is calculated as: TV=a×b^2/2, wherein a and b represent the length and width of the tumor to be measured, respectively.
(§4) The relative tumor volume (RTV) is calculated as: RTV=Vt/V1, wherein V1 is the tumor volume at the start of grouping and administration, and Vt is the tumor volume measured on the t day after administration.
(§5) The evaluation index of anti-tumor activity is the relative tumor proliferation rate T/C (%), and the calculation formula thereof is: relative tumor proliferation rate T/C (%)=(TRTV/CRTV)×100%, TRTV is the RTV of treatment group, CRTV is the RTV of solvent control group.
(§6) Change of body weight (%)=(measured body weight−body weight at the start of grouping)/body weight at the start of grouping×100%.
(§7) A dose of drug is considered to be severely toxic if the body weight of mouse is reduced by more than 20% or the number of drug-related deaths exceeds 20%.
(§8) According to the description by Clarke R., Issues in experimental design and endpoint analysis in the study of experimental cytotoxic agents in vivo in breast cancer and other models [J]. Breast Cancer Research & Treatment, 1997, 46(2-3): 255-278, synergy analysis was evaluated using the following formula: synergy factor=((A/C)×(B/C))/(AB/C); A=RTV value of drug A alone group; B=RTV value of drug B alone group; C=RTV value of the solvent control group, and AB=RTV value of the A and B combination group.
(§9) Use of mRECIST (Gao et al., 2015) measured tumor responses included stable disease (SD), partial tumor regression (PR), and complete regression (CR), determined by comparing tumor volume change at day t to its baseline: tumor volume change (%)=(Vt−V1)/V1. The BestResponse was the minimum value of tumor volume change (%) for t≥10. For each time t, the average of tumor volume changes from t=1 to t was also calculated. BestAvgResponse was defined as the minimum value of this average for t≥10. The criteria for response (mRECIST) were adapted from RECIST criteria (Gao et al., 2015; Therasse et al., 2000) and defined as follows: mCR, BestResponse<−95% and BestAvg Response<−40%; mPR, BestResponse<−50% and BestAvgResponse<−20%; mSD, BestResponse<35% and BestAvgResponse<30%; mPD, not otherwise categorized. SD, PR, and CR were considered responders and used to calculate response rate (%). […] Body weight of animals were monitored simultaneously. […]

A549 NSCLC xenograft = assay: s.c. A549 NSCLC lung cancer model, Compound 5 and panobinostat; format: in vivo, mouse
[2] = system: PTK2 high NSCLC PDX LU-01-0604; assay: s.c. PTK2 high NSCLC PDX model LU-01-0604, Compound 5 and carboplatin; format: in vivo, mouse
Method: as §1, §2, §3, §4, §5, §6, §7, §8, §9

[3] = system: colon CT26 syngeneic tumor; assay: s.c. syngeneic tumor model of colon CT26, Compound 5 and anti-PD-1 antibody; format: in vivo; settings: for RTV on Day 12 after administration (mean ± standard error) / T/C on Day 12 after administration (%): alone or with anti-PD-1 10 mg/kg i.p. twice weekly
ovarian PA-1 xenograft = assay: s.c. ovarian PA-1 xenograft tumor model, Compound 5 and carboplatin; format: in vivo, mouse
Method: as §1, §2, §3, §4, §5, §6, §7, §8
Use of mRECIST (Gao et al., 2015) measured tumor responses included stable disease (SD), partial tumor regression (PR), and complete regression (CR), determined by comparing tumor volume change at day t to its baseline: tumor volume change (%)=(Vt−V1)/V1. The BestResponse was the minimum value of tumor volume change (%) for t≥10. For each time t, the average of tumor volume changes from t=1 to t was also calculated. […] Body weight of animals were monitored simultaneously. […]

[4] = system: PTK2 high ovarian PDX OV2423; assay: PTK2 high ovarian PDX model OV2423, Compound 5 and carboplatin and/or paclitaxel; format: in vivo, mouse
Method: as §1, §2, §3, §4, §6, §7, §8
Use of mRECIST (Gao et al., 2015) measured tumor responses included stable disease (SD), partial tumor regression (PR), and complete regression (CR), determined by comparing tumor volume change at day t to its baseline: tumor volume change (%)=(Vt−V1)/V1. The BestResponse was the minimum value of tumor volume change (%) for t≥10. For each time t, the average of tumor volume changes from t=1 to t was also calculated. BestAvgResponse was defined as the minimum value of this average for t≥10. The criteria for response (mRECIST) were adapted from RECIST criteria (Gao et al., 2015; Therasse et al., 2000) and defined as follows: mCR, BestResponse<−95% and BestAvg Response<−40%; mPR, BestResponse<−50% and BestAvgResponse<−20%; mSD, BestResponse<35% and BestAvgResponse<30%; mPD, not otherwise categorized. SD, PR, and CR were considered responders and used to calculate response rate (%). […] Body weight of animals were monitored simultaneously. The change in body weight was calculated based on the animal weight of the first day of dosing (day 1). Tumor volume and changes in body weight (%) were represented as the mean±standard error of the mean (SEM).

[5] = Compound 5 50 mg/kg, ribociclib 75 mg/kg, orally once per day, 21 days
[6] = Compound 5 100 mg/kg orally once per day, panobinostat 3 mg/kg i.p. 5 days then 2 days break, 14 days
[7] = Compound 5 50 mg/kg orally once per day, carboplatin 30 mg/kg i.p. once per week, 29 days
[8] = Compound 5 30 mg/kg orally once per day
[9] = Compound 5 100 mg/kg orally once per day
[10] = Compound 5 100 mg/kg orally once per day 21 days, carboplatin 50 mg/kg i.p. once on Day 1
[11] = Compound 5 50 mg/kg orally once per day, carboplatin 30 mg/kg i.p. once a week, paclitaxel 10 mg/kg i.v. once a week, 28 days

Cc1cc(Nc2ncc(Cl)c(Nc3ccccc3S(=O)(=O)C(C)C)n2)c(OC(C)C)cc1C1=CCN(C2CCOCC2)CC1 [Compound 5, 5-chloro-N^2-(2-isopropoxy-5-methyl-4-(1-(tetrahydro-2H-pyran-4-yl)-1,2,3,6-tetrahydropyridin-4-yl)phenyl)-N^4-(2-(isopropylsulfonyl)phenyl)pyrimidine-2,4-diamine] was tested, and the “RTV on Day 21 after administration (mean ± standard error)” value [1, 5] was 1.79 ± 0.22, the “T/C on Day 21 after administration (%)” value [1, 5] was 6.74% and the “mRECIST on Day 21 after administration” value ([1]; Day 21, animals per class) was 2/5 SD, 3/5 PD. For the same compound, the Disease control rate ([1]; based on mRECIST) was 2/5 PD (60%), the “antitumor activity (conclusion in words)” value ([1]; mouse, in vivo) was “strong antitumor activity” and the body weight loss ([1]; mouse, in vivo) was “less than 10%”. For the same compound, the “RTV on Day 14 after administration (mean ± standard error)” value (A549 NSCLC xenograft; [6]) was 3.21 ± 0.46, the “T/C on Day 14 after administration (%)” value (A549 NSCLC xenograft; [6]) was 89.54% and the “antitumor activity (conclusion in words)” value (A549 NSCLC xenograft; mouse, in vivo) was “minor antitumor activity”. For the same compound, the “RTV on Day 29 after administration (mean ± standard error)” value [2, 7] was 8.25 ± 1.03, the “T/C on Day 29 after administration (%)” value [2, 7] was 94.50% and the mRECIST ([2]; animals per class) was 2/2 PD. The “antitumor activity (conclusion in words)” value ([2]; mouse, in vivo) was “no antitumor activity”, the “RTV on Day 12 after administration (mean ± standard error)” value [3, 8] was 29.9 ± 4.2 and the “T/C on Day 12 after administration (%)” value [3, 8] was 102.75%. The “RTV on Day 12 after administration (mean ± standard error)” value [3, 9] was 22.5 ± 2.2, the “T/C on Day 12 after administration (%)” value [3, 9] was 77.32% and the “antitumor activity (conclusion in words)” value ([3]; mouse, in vivo) was “no antitumor activity”. The “RTV on Day 22 after administration (mean ± standard error)” value (ovarian PA-1 xenograft; [10]) was 10.0 ± 1.0, the “T/C on Day 22 after administration (%)” value (ovarian PA-1 xenograft; [10]) was 62.89% and the “antitumor activity (conclusion in words)” value (ovarian PA-1 xenograft; mouse, in vivo) was “moderate antitumor activity”. For the same compound, the “RTV on Day 28 after administration (mean ± standard error)” value [4, 11] was 14.83 ± 3.19, the “T/C on Day 28 after administration (%)” value [4, 11] was 78.97% and the mRECIST ([4]; animals per class) was 2/2 PD. For the same compound, the “antitumor activity (conclusion in words)” value ([4]; mouse, in vivo) was “minor antitumor activity”.

From patent US20230381176A1, “A PHARMACEUTICAL COMPOSITION AND USE THEREOF FOR TREATMENT OF CANCER” (Ascentage Pharma (Suzhou) Co., Ltd., priority 2020, published 2023)
